Patent publication US3982931A, “N,N-di-sec.butyl-benzamide herbicides” (priority 1967, dated 1976)

Columns and labels:
[1] = tested on: triticum vulgare L. (wheat); assay: activity on agrarian species, soil treatment one day after sowing; type: in vivo
Text: (§1) The infesting species and the agrarian species have been indicated in Table 1 by letters, as follows:
N = triticum vulgare L. (wheat)
(§2) Method of evaluation of the results (of tests):
(§3) 0 = no activity and no difference with respect to the control;
(§4) 1 slight differences with respect to the control;
(§5) 3 = considerable activity with damages that definitely impair the further development of most of the small plants; an activity degree already useful for practical purposes;
(§6) 4 = maximum of activity with lack of germination or total containment of the small plants in the emerging stage.
(§7) In the case of an intermediate activity between two classes of the scale, both values are recorded with the one which corresponds to the preeminent activity preceding.
(§8) TABLE 2 reports the activity data of other compounds that fall within the class which is the object of this invention.
(§9) TABLE 3 reports data on the herbicidal activity against infesting herbs, while TABLE 4 reports data concerning the activity on useful species of agricultural cultivations. These tables employ the criterion explained previously. The product was spread on the soil one day after sowing, in quantities of 1, 3, 6, 8, 10, 12 and 14 kg/ha.

chenopodium album L. = assay: herbicidal activity, soil treatment one day after sowing; type: in vivo
oryza sativa L. (rice) = assay: activity on agrarian species, soil treatment one day after sowing; type: in vivo
Text: as §1
P = oryza sativa L. (rice)
as §2, §3, §4, §5, §6, §7, §8, §9

[2] = tested on: echinocloa crus-galli R.S.; assay: herbicidal activity, soil treatment one day after sowing; type: in vivo
pisum sativum L. (pea) = assay: activity on agrarian species, soil treatment one day after sowing; type: in vivo
Text: as §1
L = pisum sativum L. (pea)
as §2, §3, §4, §5, §6, §7, §8
TABLE 3 reports data on the herbicidal activity against infesting herbs, while TABLE 4 reports data concerning the activity on useful species of agricultural cultivations. These tables employ the criterion explained previously. […]

vicia sativa L. = assay: herbicidal activity, soil treatment one day after sowing; type: in vivo
In short: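 Pre-emergence soil treatment one day after sowing; activity scored visually on a […] scale against untreated control, from slight difference (1) to no germination or total containment at emergence (4); intermediate activity recorded as both classes, preeminent value first.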

avena sativa (oats) [3] = assay: activity on agrarian species, soil treatment one day after sowing; type: in vivo, Avena sativa L.
Text: as §1, §2, §3, §4, §5, §6, §7, §8, §9

[4] = tested on: amaranthus retroflexus L.; assay: herbicidal activity, soil treatment one day after sowing; type: in vivo
[5] = tested on: beta vulgaris L. (sugar-beet); assay: activity on agrarian species, soil treatment one day after sowing; type: in vivo
Text: as §1
H = beta vulgaris L. (sugar-beet)
as §2, §3, §4, §5, §6, §7, §8, §9

artemisia vulgaris L. = assay: herbicidal activity, soil treatment one day after sowing; type: in vivo
solanum Lycopersicum L. = assay: activity on agrarian species, soil treatment one day after sowing; type: in vivo
Text: as §1
M = solanum Lycopersicum L.
as §2, §3, §4, §5, §6
In the case of an intermediate activity between two classes of the scale, both values are recorded with the one which corresponds to the preeminent activity preceding. […]

zea mais L. (corn) = assay: as above; type: in vivo
Text: as §1, §2, §3, §4, §5, §6, §7, §8, §9

setaria glauca L. = assay: herbicidal activity, soil treatment one day after sowing; type: in vivo
[6] = tested on: phaseolus vulgaris (bean); assay: activity on agrarian species, soil treatment one day after sowing; type: in vivo, Phaseolus vulgaris L.
Text: as §1
I = phaseolus vulgaris (bean)
as §2, §3, §4, §5, §6, §7, §8, §9

Echinocloa crus-galli = assay: Example 1 pot test, submerged rice-field earth, granular composition; type: in vivo; settings: 3 kg/ha of active principle
Procedure: (§10) A series of pots were prepared filled with rice-field earth. Into these were then sown Echinocloa crus-galli and rice. The earth was then submerged by 10 cm of water and immediately thereafter were uniformly spread on the submerged soil granular compositions, some of them containing 2% of PA 234 and 98% of phosphorite, some others 5% of PA 234 and 95% of bentonite, in doses graduated from 0 - 8 kg of active principle per hectar. The test pots were kept in a conditioned environment at controlled temperature and photo-period.

rice = assay: as above; type: in vivo; settings: maximum dose; doses 0 - 8 kg/ha
Procedure: as §10

avena sativa (oats) [7] = assay: activity on agrarian species, soil treatment one day after sowing; type: in vivo, Avena sativa L.; remark: listed apart in the source
infesting gramineae = assay: herbicidal action on infesting plants (general statements); type: in vivo; settings: in words
Text: (§11) It is understood that all the data given herein shall have no limiting character on the object of this invention.

useful plants = assay: phytotoxic action on useful plants (general statements); type: in vivo, useful gramineae; settings: in words
Text: as §11

SMILES: CCN(CC)C(=O)c1ccc(Cl)c(Cl)c1 [PA61, 3,4-dichloro-N,N-diethyl-benzamide, reference compound]
- activity on N, 0-4 scale ([1]; in vivo): 1
- activity on C, 0-4 scale (chenopodium album L.; 2 kg/ha): 3
- activity on C, 0-4 scale (chenopodium album L.; 6 kg/ha): 3
- activity on P, 0-4 scale (oryza sativa L. (rice); in vivo): 3
- activity on D, 0-4 scale ([2]; 2 kg/ha): 1
- activity on D, 0-4 scale ([2]; 6 kg/ha): 3
- activity on L, 0-4 scale (pisum sativum L. (pea); in vivo): 1
- activity on F, 0-4 scale (vicia sativa L.; 2 kg/ha): 2-3
- activity on F, 0-4 scale (vicia sativa L.; 6 kg/ha): 3
- activity on G, 0-4 scale (avena sativa (oats) [3]; in vivo): 1
- activity on A, 0-4 scale ([4]; 2 kg/ha): 3
- activity on A, 0-4 scale ([4]; 6 kg/ha): 3-4
- activity on H, 0-4 scale ([5]; in vivo): 3-4
- activity on B, 0-4 scale (artemisia vulgaris L.; 2 kg/ha): 3
- activity on B, 0-4 scale (artemisia vulgaris L.; 6 kg/ha): 3-4
- activity on M, 0-4 scale (solanum Lycopersicum L.; in vivo): 3-4
- activity on O, 0-4 scale (zea mais L. (corn); in vivo): 2
- activity on E, 0-4 scale (setaria glauca L.; 2 kg/ha): 2
- activity on I, 0-4 scale ([6]; in vivo): 1

SMILES: CCC(C)N(C(=O)c1cc(Cl)cc(Cl)c1)C(C)CC (stereo not drawn) [PA234, 3,5-dichloro-N,N-di-sec.butyl-benzamide]
- activity on N, 0-4 scale ([1]; 2 kg/ha): 0
- activity on N, 0-4 scale ([1]; 4 kg/ha): 0
- activity on N, 0-4 scale ([1]; 6 kg/ha): 0
- activity on C, 0-4 scale (chenopodium album L.; 2 kg/ha): 1
- activity on C, 0-4 scale (chenopodium album L.; 4 kg/ha): 2-1
- activity on C, 0-4 scale (chenopodium album L.; 6 kg/ha): 2
- activity on P, 0-4 scale (oryza sativa L. (rice); 6 kg/ha): 0
- activity on D, 0-4 scale ([2]; 0-5 kg/ha (so in the source)): 2-1
- activity on D, 0-4 scale ([2]; 0.5 kg/ha): 2-1
- activity on D, 0-4 scale ([2]; 1 kg/ha): 2-3
- activity on D, 0-4 scale ([2]; 2 kg/ha): 4
- activity on D, 0-4 scale ([2]; 4 kg/ha): 4
- activity on D, 0-4 scale ([2]; 6 kg/ha): 4
- activity on L, 0-4 scale (pisum sativum L. (pea); 2 kg/ha): 0
- activity on L, 0-4 scale (pisum sativum L. (pea); 4 kg/ha): 0
- activity on L, 0-4 scale (pisum sativum L. (pea); 6 kg/ha): 0
- activity on F, 0-4 scale (vicia sativa L.; 2 kg/ha): 0
- activity on F, 0-4 scale (vicia sativa L.; 4 kg/ha): 0
- activity on F, 0-4 scale (vicia sativa L.; 6 kg/ha): 0
- activity on G, 0-4 scale (avena sativa (oats) [3]; 6 kg/ha): 0
- activity on A, 0-4 scale ([4]; 2 kg/ha): 1-2
- activity on A, 0-4 scale ([4]; 4 kg/ha): 2
- activity on A, 0-4 scale ([4]; 6 kg/ha): 2-3
- growth of Echinocloa crus-galli (Echinocloa crus-galli): totally inhibited
- damage to rice (rice): remained undamaged
- activity on H, 0-4 scale ([5]; 2 kg/ha): 0
- activity on H, 0-4 scale ([5]; 4 kg/ha): 1
- activity on H, 0-4 scale ([5]; 6 kg/ha): 1
- activity on B, 0-4 scale (artemisia vulgaris L.; 2 kg/ha): 0-1
- activity on B, 0-4 scale (artemisia vulgaris L.; 4 kg/ha): 1
- activity on B, 0-4 scale (artemisia vulgaris L.; 6 kg/ha): 1-2
- activity on M, 0-4 scale (solanum Lycopersicum L.; 2 kg/ha): 1
- activity on M, 0-4 scale (solanum Lycopersicum L.; 4 kg/ha): 1
- activity on M, 0-4 scale (solanum Lycopersicum L.; 6 kg/ha): 1
- activity on O, 0-4 scale (zea mais L. (corn); 2 kg/ha): 0
- activity on O, 0-4 scale (zea mais L. (corn); 4 kg/ha): 0
- activity on O, 0-4 scale (zea mais L. (corn); 6 kg/ha): 0
- activity on E, 0-4 scale (setaria glauca L.; 0-5 kg/ha (so in the source)): 3-2
- activity on E, 0-4 scale (setaria glauca L.; 0.5 kg/ha): 3-2
- activity on E, 0-4 scale (setaria glauca L.; 1 kg/ha): 3-4
- activity on E, 0-4 scale (setaria glauca L.; 2 kg/ha): 4
- activity on E, 0-4 scale (setaria glauca L.; 4 kg/ha): 4
- activity on E, 0-4 scale (setaria glauca L.; 6 kg/ha): 4
- activity on I, 0-4 scale ([6]; 2 kg/ha): 0
- activity on I, 0-4 scale ([6]; 4 kg/ha): 0
- activity on I, 0-4 scale ([6]; 6 kg/ha): 0
- activity on G, 0-4 scale (avena sativa (oats) [7]; 2 kg/ha): 0
- activity on G, 0-4 scale (avena sativa (oats) [7]; 4 kg/ha): 0

SMILES: CCC(C)N(C(=O)c1c(Cl)cccc1Cl)C(C)CC (stereo not drawn) [PA227, 2,6-dichloro-N,N-di-sec.butyl-benzamide]
- activity on N, 0-4 scale ([1]; in vivo): 0
- activity on C, 0-4 scale (chenopodium album L.; 2 kg/ha): 1
- activity on C, 0-4 scale (chenopodium album L.; 4 kg/ha): 2
- activity on C, 0-4 scale (chenopodium album L.; 6 kg/ha): 3-4
- activity on P, 0-4 scale (oryza sativa L. (rice); in vivo): 0
- activity on D, 0-4 scale ([2]; 2 kg/ha): 2
- activity on D, 0-4 scale ([2]; 4 kg/ha): 3
- activity on D, 0-4 scale ([2]; 6 kg/ha): 4
- activity on L, 0-4 scale (pisum sativum L. (pea); in vivo): 0
- activity on F, 0-4 scale (vicia sativa L.; 2 kg/ha): 0
- activity on F, 0-4 scale (vicia sativa L.; 4 kg/ha): 0
- activity on F, 0-4 scale (vicia sativa L.; 6 kg/ha): 0
- activity on G, 0-4 scale (avena sativa (oats) [3]; in vivo): 0
- activity on A, 0-4 scale ([4]; 2 kg/ha): 1-2
- activity on A, 0-4 scale ([4]; 4 kg/ha): 3
- activity on H, 0-4 scale ([5]; in vivo): 2
- activity on B, 0-4 scale (artemisia vulgaris L.; 2 kg/ha): 0-1
- activity on B, 0-4 scale (artemisia vulgaris L.; 4 kg/ha): 1-2
- activity on B, 0-4 scale (artemisia vulgaris L.; 6 kg/ha): 2
- activity on M, 0-4 scale (solanum Lycopersicum L.; in vivo): 1
- activity on O, 0-4 scale (zea mais L. (corn); in vivo): 0
- activity on E, 0-4 scale (setaria glauca L.; 2 kg/ha): 2
- activity on E, 0-4 scale (setaria glauca L.; 4 kg/ha): 3
- activity on E, 0-4 scale (setaria glauca L.; 6 kg/ha): 4
- activity on I, 0-4 scale ([6]; in vivo): 0

SMILES: CC(C)N(C(=O)c1cc(Cl)cc(Cl)c1Cl)C(C)C [PA302, 2,3,5-trichloro-N,N-di-iso-propyl-benzamide, reference compound]
- activity on C, 0-4 scale (chenopodium album L.; 1 kg/ha): 2
- activity on C, 0-4 scale (chenopodium album L.; 3 kg/ha): 3
- activity on C, 0-4 scale (chenopodium album L.; 6 kg/ha): 3
- activity on P, 0-4 scale (oryza sativa L. (rice); in vivo): 4-3
- activity on D, 0-4 scale ([2]; 3 kg/ha): 4
- activity on D, 0-4 scale ([2]; 6 kg/ha): 4
- activity on F, 0-4 scale (vicia sativa L.; 1 kg/ha): 0
- activity on F, 0-4 scale (vicia sativa L.; 3 kg/ha): 0-1
- activity on F, 0-4 scale (vicia sativa L.; 6 kg/ha): 0-1
- activity on A, 0-4 scale ([4]; 3 kg/ha): 2
- activity on A, 0-4 scale ([4]; 6 kg/ha): 2-3
- activity on B, 0-4 scale (artemisia vulgaris L.; 1 kg/ha): 1-2
- activity on B, 0-4 scale (artemisia vulgaris L.; 3 kg/ha): 2
- activity on B, 0-4 scale (artemisia vulgaris L.; 6 kg/ha): 2
- herbicidal action (infesting gramineae): very active
- activity on E, 0-4 scale (setaria glauca L.; 1 kg/ha): 3-4
- activity on E, 0-4 scale (setaria glauca L.; 3 kg/ha): 4
- activity on E, 0-4 scale (setaria glauca L.; 6 kg/ha): 4
- phytotoxic action on useful plants (useful plants): phytotoxic action of considerable intensity
